This note sets out measurements from patent publication US20260226019A1, “NEGATIVE ALLOSTERIC MODULATORS OF METABOTROPIC GLUTAMATE RECEPTOR 2” (Vanderbilt University, priority 2023, published 2026).

SMILES strings stand for the structures. A value given as a limit tells only on which side of the number the result lay.

The target in this assay is T1, human mGlu2 (Homo sapiens, UniProt Q14416).
T1 construct: expressed in transfected cells; host or cells: HEK-293 stably co-expressing GIRK channels
T1 sequence (Q14416 19-872): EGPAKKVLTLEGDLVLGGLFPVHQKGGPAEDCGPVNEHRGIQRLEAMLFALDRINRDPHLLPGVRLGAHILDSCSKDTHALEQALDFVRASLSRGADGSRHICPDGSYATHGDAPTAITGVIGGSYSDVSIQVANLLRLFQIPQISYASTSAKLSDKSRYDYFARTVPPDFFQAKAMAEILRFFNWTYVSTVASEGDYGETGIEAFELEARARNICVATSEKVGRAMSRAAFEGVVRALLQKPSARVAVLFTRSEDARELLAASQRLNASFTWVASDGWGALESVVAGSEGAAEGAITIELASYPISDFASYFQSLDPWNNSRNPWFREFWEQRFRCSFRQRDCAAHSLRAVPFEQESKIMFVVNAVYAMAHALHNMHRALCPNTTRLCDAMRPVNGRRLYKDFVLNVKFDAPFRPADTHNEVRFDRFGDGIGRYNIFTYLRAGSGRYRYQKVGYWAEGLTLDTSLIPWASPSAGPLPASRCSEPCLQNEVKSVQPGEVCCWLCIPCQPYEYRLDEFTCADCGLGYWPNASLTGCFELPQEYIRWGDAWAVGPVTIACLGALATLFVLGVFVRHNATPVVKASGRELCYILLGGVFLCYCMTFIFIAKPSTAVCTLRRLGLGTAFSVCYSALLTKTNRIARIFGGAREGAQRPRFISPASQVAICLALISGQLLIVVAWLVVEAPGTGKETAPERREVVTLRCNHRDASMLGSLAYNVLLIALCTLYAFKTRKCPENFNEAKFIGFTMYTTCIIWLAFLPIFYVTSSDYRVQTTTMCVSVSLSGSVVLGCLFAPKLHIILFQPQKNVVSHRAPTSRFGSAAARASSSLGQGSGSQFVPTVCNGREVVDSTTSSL
Description: mGlu GIRK cell-based thallium flux assay, human mGlu2. The conditions noted are these: HEK-293 cells co-expressing human mGlu2 and GIRK, EC80 glutamate, single experiment. On the procedure: Human embryonic kidney (HEK-293) cell lines stably co-expressing human or rat mGlu2 and G protein-coupled inwardly rectifying potassium (GIRK) channels, or human mGlu3 and GIRK, were used for in vitro evaluation of compound activity in thallium flux assay using a fluorescent thallium indicator dye.
The day before the assay, GIRK cells co-expressing human mGlu3, human or rat mGlu2, as described above, were plated in black-walled, clear-bottomed, amine-coated 384-well plates at a density of 15,000 cells/[…]/well in the assay medium (glutamine-depleted basal DMEM supplemented with 10% dialyzed FBS, 20 mM HEPES, 1 mM sodium pyruvate). Cells were incubated at 37° C. in the presence of 5% CO2. The next day, assay buffer (Hanks balanced salt solution, 20 mM HEPES, 4.16 mM sodium bicarbonate, pH 7.2) was prepared to dilute compounds and Thallos AM fluorescent dye solution. The 2× Thallos dye solution (final concentration 0.34 μM to the cells) was prepared by mixing the dye stock (2.97 mM in DMSO) to 1:1 with 10% pluronic acid before adding to the assay buffer. Cells were washed with assay buffer using a microplate washer to remove the medium, resulting in 20 μL of buffer remaining in each well. […] During the cell dye loading incubation period, a 10-point concentration serial dilution of compound was created from a 10 mM DMSO compound stock by performing a 1:3 serial dilution in DMSO using the Bravo liquid handler. The 2× compound plate was generated by transferring 0.24 μL of the diluted compound in each well to a daughter plate using an Echo acoustic liquid handler. This is further diluted in 40 μL assay buffer, resulting in a range from […] to 1.5 nM final concentration in the assay. The agonist plate (5×) was prepared to include EC80 glutamate concentration (a concentration to elicit 80% of a maximally effective glutamate concentration) in thallium buffer (125 mM sodium bicarbonate, 1 mM magnesium sulfate, 1.8 mM calcium sulfate, 5 mM glucose, 10 mM HEPES, pH 7.2, 12.5 mM thallium sulfate).
After dye-loading, cell plates were washed with assay buffer to remove excess extracellular dye using a microplate washer, resulting in 20 μL of buffer remaining in each well. After a ten-minute equilibration period, cell, compound and agonist plates were loaded into a Hamamatsu μCell kinetic imaging plate reader equipped with liquid handler to monitor fluorescence changes at 480 nm excitation and 540 nm emission settings. Briefly, after collection of baseline fluorescence, 20 μL of compound was added and incubated for two minutes and twenty seconds. This is immediately followed by adding 10 μL of glutamate-thallium buffer to the wells containing compound. The fluorescent signal was monitored an additional 2.5 minutes after the glutamate addition. Multiple reference wells containing no compound received either no glutamate (for a baseline reference), EC80 glutamate, or ECmax glutamate (for normalization to maximum response). […] Each compound concentration series occurred one time in each plate, and replicates from two or three plates were used in each experimental run. Thallium solutions were handled and disposed of according to guidelines from the Vanderbilt University Chemical Safety department.
Data were normalized using a static ratio function (F/F0) by dividing every fluorescent measurement by the initial fluorescent value for the corresponding well. The increase in signal resulting from the glutamate/thallium addition of the second add was measured by determining the slope from 3 seconds to 13 seconds after the addition. The average of all baseline slopes (no compound, no glutamate) was determined and this value was subtracted from all other slope values. The average of all ECmax slopes was determined and this value was used to normalize the baseline-corrected slopes to a percent max value (% Emax).
For the compound `O=C1NCc2c1cc(-c1ccc(F)cc1F)cc2-c1cnn(C(F)F)c1` [Compound 8, 4-(1-(difluoromethyl)-1H-pyrazol-4-yl)-6-(2,4-difluorophenyl)isoindolin-1-one], the half-maximal inhibitory concentration (IC50) was > 10 µM.
Still for that read-out and setting: with `COc1cc(F)ccc1-c1cc2c(c(-c3cnsc3)c1)CNC2=O` [Compound 48, 6-(4-fluoro-2-methoxyphenyl)-4-(isothiazol-4-yl)isoindolin-1-one] the figure was > 10 µM.
On to `Cn1cc2c(n1)CN(c1cc(-c3ccc(F)cc3F)cc3c1CNC3=O)C2` [Compound A22, 6-(2,4-difluorophenyl)-4-(2-methyl-2,6-dihydropyrrolo[3,4-c]pyrazol-5(4H)-yl)isoindolin-1-one], for which the IC50 is > 10 µM.
On the same count and under the same terms, in the case of `N#Cc1ccc(-c2cc3c(c(-c4cnsc4)c2)CNC3=O)c(F)c1` [Compound 43, 3-fluoro-4-(7-(isothiazol-4-yl)-3-oxoisoindolin-5-yl)benzonitrile] it was 5.07 µM.
Still for that read-out and setting: with `Cc1nn(C)c(C)c1-c1cc(C2CCOCC2)cc2c1CNC2=O` [Compound 98, 6-(tetrahydro-2H-pyran-4-yl)-4-(1,3,5-trimethyl-1H-pyrazol-4-yl)isoindolin-1-one] the figure was 0.985 µM.
Take `Cn1cc(-c2cc(-c3ccc(F)cc3F)cc3c2CNC3=O)cc1C#N` [Compound 14, 4-(6-(2,4-difluorophenyl)-1-oxoisoindolin-4-yl)-1-methyl-1H-pyrrole-2-carbonitrile]: the IC50 stood at 3.08 µM. Against the preceding compound, the IC50 is about 3.1-fold higher.
Same read-out and setting: with `O=C1NCc2c1cc(-c1ccc(OC(F)F)cc1F)cc2-c1cnsc1` [Compound 46, 6-(4-(difluoromethoxy)-2-fluorophenyl)-4-(isothiazol-4-yl)isoindolin-1-one] the figure was > 10 µM; with `CCn1nccc1-c1cc(C2=CCOCC2)cc2c1CNC2=O` [Compound 95, 6-(3,6-dihydro-2H-pyran-4-yl)-4-(1-ethyl-1H-pyrazol-5-yl)isoindolin-1-one], 0.323 µM; with `O=C1NCc2c1cc(-c1ccc(F)cc1F)cc2-c1cnc(C(F)(F)F)nc1` [Compound 32, 6-(2,4-difluorophenyl)-4-(2-(trifluoromethyl)pyrimidin-5-yl)isoindolin-1-one], 3.13 µM.
`N#Cc1c(F)cc(-c2cc3c(c(-c4cnsc4)c2)CNC3=O)cc1F` [Compound 57, 2,6-difluoro-4-(7-(isothiazol-4-yl)-3-oxoisoindolin-5-yl)benzonitrile]: the “Human mGlu2 GIRK IC50 (nM)” value is recorded as “Inactive”.
Compound `Cc1c(-c2cc(C3=CCOCC3)cc3c2CNC3=O)cnn1C` [Compound 93, 6-(3,6-dihydro-2H-pyran-4-yl)-4-(1,5-dimethyl-1H-pyrazol-4-yl)isoindolin-1-one] came in with an IC50 of 0.258 µM.
In the case of `COc1ccc(-c2cc3c(c(-c4cnsc4)c2)CNC3=O)c(F)c1F` [Compound 49, 6-(2,3-difluoro-4-methoxyphenyl)-4-(isothiazol-4-yl)isoindolin-1-one], the IC50 amounted to 3.48 µM. Compared with the last compound, the IC50 is about 13-fold higher.
Consider `O=Cc1ccc(-c2cc3c(c(-c4cnsc4)c2)CNC3=O)c(F)c1F` [Compound 58, 2,3-difluoro-4-(7-(isothiazol-4-yl)-3-oxoisoindolin-5-yl)benzaldehyde], for which the IC50 is > 10 µM.
The same measure, in the same setting: in the case of `COc1ccc(-c2cc3c(c(-c4cnsc4)c2)CNC3=O)c(F)c1` [Compound 44, 6-(2-fluoro-4-methoxyphenyl)-4-(isothiazol-4-yl)isoindolin-1-one] it was 3.56 µM; in that of `COc1cc(F)c(-c2cc3c(c(-c4cnsc4)c2)CNC3=O)c(F)c1` [Compound 56, 6-(2,6-difluoro-4-methoxyphenyl)-4-(isothiazol-4-yl)isoindolin-1-one], > 10 µM.
As for `Cc1cc(-c2cc3c(c(-c4cnsc4)c2)CNC3=O)c(F)cc1C#N` [Compound 51, 5-fluoro-4-(7-(isothiazol-4-yl)-3-oxoisoindolin-5-yl)-2-methylbenzonitrile], the “Human mGlu2 GIRK IC50 (nM)” value is listed as “Inactive”.
In turn, `O=C1NCc2c1cc(-c1ccc(F)cc1F)cc2-c1ccc(F)cc1F` [Compound 4, 4,6-bis(2,4-difluorophenyl)isoindolin-1-one] came in with an IC50 of 2.07 µM.
